Laboratory results: patent publication US11458189B2, “Cytoprotective drugs” (BALMES TRANSPLANTATION, priority 2017, dated 2022)
Starred links: 1 amine or outer side, 2 acyl side, 3 side chain; linkers in the order of their positions; H or OH if unused. Positions of bridges follow the written chain, without caps; N, C: chain ends. Non-standard residues stand in square brackets, D forms with d. Residues, ends and D or L forms follow the SMILES beside them. ξ: configuration not given here. *: point of attachment. hTyr(3S-OH,4S-OH,3'-OSO3H) = N[C@H](C(=O)O)[C@H](O)[C@@H](O)c1ccc(O)c(OS(=O)(=O)O)c1; pTerphenylCO(4''-OnC5H11) = CCCCCOc1ccc(-c2ccc(-c3ccc(C(=O)*)cc3)cc2)cc1; Orn(4R-OH,5R-OH) = O=C([C@H](C[C@@H](O)[C@@H](O)N[*:3])N[*:1])[*:2]; hTyr(3S-OH,4S-OH) = N[C@H](C(=O)O)[C@H](O)[C@@H](O)c1ccc(O)cc1; Pro(3S-OH,4S-Me) = C[C@H]1CN[C@H](C(=O)O)[C@H]1O; X1 = CCCCCOc1ccc(-c2cc(-c3ccc(C(=O)*)cc3)no2)cc1; Gln(3R-OH) = NC(=O)C[C@@H](O)[C@H](N)C(=O)O; ξPro(4R-OH) = O=C(O)C1C[C@@H](O)CN1; Hyp = O=C(O)[C@@H]1C[C@@H](O)CN1

System: Bovine Brain Microvascular Endothelial Cells (BBMEC)
Experiment: Oxygen and glucose deprivation followed by replenishment, cell survival (calcein AM), BBMEC
Assay type: cell-based
Procedure: Anidulafungin and micafungin were tested on Human Renal Glomerular Endothelial Cells (HRGEC, Innoprot P10665), on Human Renal Proximal Tubular Epithelial Cells (HRPTEpiC, Innoprot P10662), on Human Astrocytes (HA, caltag SC-1800), on Human Cardiac Microvascular Endothelial Cells (HCMEC, Caltag SC-6000), on Human Hepatic Sinusoidal Endothelial Cells (HHSEC, Caltag SC-5000), on Rat Primary Kidney Glomerular Endothelial cells (Cellbiologics, RN-6014G) and on Bovine Brain Microvascular Endothelial Cells (BBMEC, Caltag SC-B100).
In a first phase, these isolated, purified and cryopreserved cells are thawed and multiplied according to the supplier's recommendations in T75 or T175 flasks pre-coated with 2 μg of fibronectin/[…] (CORNING) for HRGEC, HCMEC, HHSEC and BBMEC, or 2 μg poly-L-lysin/cm^2 (Caltag SC-0403) for HRPTEpiC and HA, or 15 mL/flask 175 cm^2 gelatin-based solution (Cellbiologics) in the presence of endothelial cell supplemented growth medium ECM (P60104, INNOPROT, Caltag, SC-1001) for HRGEC, HCMEC, HHSEC, RPKGEC or BBMEC, or astrocyte cell supplemented growth medium AM (Caltag SC-1801) for HA or epithelial cell supplemented growth medium EpiCM (P60106, INNOPROT) for HRPTEpiC, at 37° C. under 5% CO2 and saturated humidity until their confluency. They are then harvested by trypsinization according to the method described by the supplier for exactly 5 minutes and then reseeded in new flasks a maximum of three times.
To carry out the oxygen and glucose deprivation test followed by their replenishment, the cells will be seeded in 96-well black plates with transparent flat bottom (GREINER). Once a sufficient number of cells has been obtained to allow seeding of 2000 to 15000 cells per well of 96-well plates depending on the cell type, the cells are seeded in these 96-well plates previously coated with an extracellular matrix as listed above for the flasks. The cells are cultured for 5 to 8 days according to the cell type, in the presence of the same growth medium as in the flask as described above except for HRGEC and HRPTEpiC for which DMEM (DUTSCHER) with 1 g/L of supplemented glucose is used, at 37° C. under 5% CO2 and saturated humidity to obtain confluency.
On the first day of oxygen and glucose deprivation, (5th, 6th, 7th or 8th day of culture), the culture conditions are drastically changed. The medium of all plates is removed and replaced by DMEM (DUTSCHER) medium without glucose and supplemented only with 1% penicillin-streptomycin (DUTSCHER). Anidulafungin or micafungin dissolved in dimethyl sulfoxide (DMSO) is then added to each well at the desired concentration, resulting in a maximum of 1% DMSO, and the plates are placed under hypoxia at <1% 02 and 5% CO2 at 37° C. for 24 hours of culture. Each compound was tested in a concentration range.
After 24 hours, the growth medium is changed and replaced by a richer medium, DMEM (DUTSCHER) at 1 g/L glucose and 2% FBS (INNOPROT) and 1% penicillin-streptomycin (DUTSCHER). These media will have been pre-equilibrated at 37° C. in advance. The cells are then returned to culture at 37° C. under 20% 02 and 5% CO2 for 22h.
After 22 hours of reoxygenation, the potential protective effect of anidulafungin or micafungin is measured by a cell viability test using calcein AM (CORNING), which is a dye substrate. The calcein AM can easily cross the cell membrane of the viable cells. The AM ester groups mask the part of the molecule that chelates calcium. Once inside the cells, the (non-fluorescent) calcein AM is hydrolyzed to (fluorescent) calcein by endogenous esterases. The resulting calcein molecule binds to calcium inside the cell and remains trapped inside the cell. These molecules emit strong green fluorescence when subjected to […] of a particular wavelength (495 nm). Since dead cells lack esterase activity, only living cells are labelled.
This cell viability test is performed in two steps. […]

[1] = [Anidulafungin] log μM 0.1760913
[2] = [Anidulafungin] log μM −0.1249387
[3] = [Anidulafungin] log μM −0.30103
[4] = [Anidulafungin] log μM −0.5228788

CCCCCOc1ccc(-c2cc(-c3ccc(C(=O)N[C@H]4C[C@@H](O)[C@@H](O)NC(=O)[C@@H]5[C@@H](O)[C@@H](C)CN5C(=O)[C@H]([C@H](O)CC(N)=O)NC(=O)[C@H]([C@H](O)[C@@H](O)c5ccc(O)c(OS(=O)(=O)O)c5)NC(=O)[C@@H]5C[C@@H](O)CN5C(=O)[C@H]([C@@H](C)O)NC4=O)cc3)no2)cc1 [Micafungin, {5-[(1S,2S)-2-[(3S,6S,9S,11R,15S,18S,20R,21R,24S,25S,26S)-3-[(1R)-2-carbamoyl-1-hydroxyethyl]-11,20,21,25-tetrahydroxy-15-[(1R)-1-hydroxyethyl]-26-methyl-2,5,8,14,17,23-hexaoxo-18-[(4-{5-[4-(pentyloxy)phenyl]-1,2-oxazol-3-yl}benzene)amido]-1,4,7,13,16,22-hexaazatricyclo[22.3.0.0]heptacosan-6-yl]-1,2-dihydroxyethyl]-2-hydroxyphenyl}oxidanesulfonic acid] (X1-[Orn(4R-OH,5R-OH)]T[Hyp][hTyr(3S-OH,4S-OH,3'-OSO3H)][Gln(3R-OH)][Pro(3S-OH,4S-Me)]; lactam 1-C)
Globalfluo assay 1 ([Micafungin] log μM 0): 1369504 arbitrary units
Globalfluo assay 2 ([Micafungin] log μM 0): 1354112 arbitrary units
Globalfluo assay 3 ([Micafungin] log μM 0): 1230715 arbitrary units
Mean globalfluo ([Micafungin] log μM 0): 1318110 arbitrary units
Survival rate (%) ([Micafungin] log μM 0): 23%
Globalfluo assay 1 ([Micafungin] log μM 0.4771213): 2106751 arbitrary units
Globalfluo assay 2 ([Micafungin] log μM 0.4771213): 1655153 arbitrary units
Globalfluo assay 3 ([Micafungin] log μM 0.4771213): 1618365 arbitrary units
Mean globalfluo ([Micafungin] log μM 0.4771213): 1793423 arbitrary units
Survival rate (%) ([Micafungin] log μM 0.4771213): 46%
Globalfluo assay 1 ([Micafungin] log μM 0.7781513): 1732851 arbitrary units
Globalfluo assay 2 ([Micafungin] log μM 0.7781513): 1742799 arbitrary units
Globalfluo assay 3 ([Micafungin] log μM 0.7781513): 1796080 arbitrary units
Mean globalfluo ([Micafungin] log μM 0.7781513): 1757243 arbitrary units
Survival rate (%) ([Micafungin] log μM 0.7781513): 44%
Globalfluo assay 1 ([Micafungin] log μM 0.90309): 3787727 arbitrary units
Globalfluo assay 2 ([Micafungin] log μM 0.90309): 1942995 arbitrary units
Globalfluo assay 3 ([Micafungin] log μM 0.90309): 2729816 arbitrary units
Mean globalfluo ([Micafungin] log μM 0.90309): 2820179 arbitrary units
Survival rate (%) ([Micafungin] log μM 0.90309): 96%
Globalfluo assay 1 ([Micafungin] log μM 1): 3519337 arbitrary units
Globalfluo assay 2 ([Micafungin] log μM 1): 3058877 arbitrary units
Globalfluo assay 3 ([Micafungin] log μM 1): 3179364 arbitrary units
Mean globalfluo ([Micafungin] log μM 1): 3252526 arbitrary units
Survival rate (%) ([Micafungin] log μM 1): 117%
Globalfluo assay 1 ([Micafungin] log μM 1.079181): 2865371 arbitrary units
Globalfluo assay 2 ([Micafungin] log μM 1.079181): 2913567 arbitrary units
Globalfluo assay 3 ([Micafungin] log μM 1.079181): 3561196 arbitrary units
Mean globalfluo ([Micafungin] log μM 1.079181): 3113378 arbitrary units
Survival rate (%) ([Micafungin] log μM 1.079181): 110%
Globalfluo assay 1 ([Micafungin] log μM 1.176091): 2994828 arbitrary units
Globalfluo assay 2 ([Micafungin] log μM 1.176091): 3496204 arbitrary units
Globalfluo assay 3 ([Micafungin] log μM 1.176091): 3106542 arbitrary units
Mean globalfluo ([Micafungin] log μM 1.176091): 3199191 arbitrary units
Survival rate (%) ([Micafungin] log μM 1.176091): 114%
Globalfluo assay 1 ([Micafungin] log μM 1.30103): 3526958 arbitrary units
Globalfluo assay 2 ([Micafungin] log μM 1.30103): 3025877 arbitrary units
Globalfluo assay 3 ([Micafungin] log μM 1.30103): 3586726 arbitrary units
Mean globalfluo ([Micafungin] log μM 1.30103): 3379854 arbitrary units
Survival rate (%) ([Micafungin] log μM 1.30103): 123%
Globalfluo assay 1 ([Micafungin] log μM 1.477121): 2506989 arbitrary units
Globalfluo assay 2 ([Micafungin] log μM 1.477121): 2361926 arbitrary units
Globalfluo assay 3 ([Micafungin] log μM 1.477121): 2557219 arbitrary units
Mean globalfluo ([Micafungin] log μM 1.477121): 2475378 arbitrary units
Survival rate (%) ([Micafungin] log μM 1.477121): 79%
Globalfluo assay 1 ([Micafungin] log μM −0.5228788): 1907644 arbitrary units
Globalfluo assay 2 ([Micafungin] log μM −0.5228788): 993296 arbitrary units
Globalfluo assay 3 ([Micafungin] log μM −0.5228788): 1867099 arbitrary units
Mean globalfluo ([Micafungin] log μM −0.5228788): 1589346 arbitrary units
Survival rate (%) ([Micafungin] log μM −0.5228788): 36%
Globalfluo assay 1 ([Micafungin] log μM −1): 1108584 arbitrary units
Globalfluo assay 2 ([Micafungin] log μM −1): 1249769 arbitrary units
Globalfluo assay 3 ([Micafungin] log μM −1): 1224251 arbitrary units
Mean globalfluo ([Micafungin] log μM −1): 1194201 arbitrary units
Survival rate (%) ([Micafungin] log μM −1): 17%
Globalfluo assay 1 ([Micafungin] log μM −2): 1778372 arbitrary units
Globalfluo assay 2 ([Micafungin] log μM −2): 817005 arbitrary units
Globalfluo assay 3 ([Micafungin] log μM −2): 1173090 arbitrary units
Mean globalfluo ([Micafungin] log μM −2): 1256156 arbitrary units
Survival rate (%) ([Micafungin] log μM −2): 20%

CCCCCOc1ccc(-c2ccc(-c3ccc(C(=O)N[C@H]4C[C@@H](O)[C@@H](O)NC(=O)[C@@H]5[C@@H](O)[C@@H](C)CN5C(=O)[C@H]([C@@H](C)O)NC(=O)[C@H]([C@H](O)[C@@H](O)c5ccc(O)cc5)NC(=O)C5C[C@@H](O)CN5C(=O)[C@H]([C@@H](C)O)NC4=O)cc3)cc2)cc1 (stereo partly drawn) [Anidulafungin] ({pTerphenylCO(4''-OnC5H11)}-[Orn(4R-OH,5R-OH)]T[ξPro(4R-OH)][hTyr(3S-OH,4S-OH)]T[Pro(3S-OH,4S-Me)]; lactam 1-C)
Globalfluo assay 1 ([Anidulafungin] log μM 0): 941644 arbitrary units
Globalfluo assay 2 ([Anidulafungin] log μM 0): 1153883 arbitrary units
Globalfluo assay 3 ([Anidulafungin] log μM 0): 1374585 arbitrary units
Mean globalfluo ([Anidulafungin] log μM 0): 1156704 arbitrary units
Survival rate (%) ([Anidulafungin] log μM 0): 30%
Globalfluo assay 1 [1]: 2348228 arbitrary units
Globalfluo assay 2 [1]: 1617378 arbitrary units
Globalfluo assay 3 [1]: 1887981 arbitrary units
Mean globalfluo [1]: 1951196 arbitrary units
Survival rate (%) [1]: 77%
Globalfluo assay 1 ([Anidulafungin] log μM 0.30103): 2455048 arbitrary units
Globalfluo assay 2 ([Anidulafungin] log μM 0.30103): 2409886 arbitrary units
Globalfluo assay 3 ([Anidulafungin] log μM 0.30103): 4507112 arbitrary units
Mean globalfluo ([Anidulafungin] log μM 0.30103): 3124015 arbitrary units
Survival rate (%) ([Anidulafungin] log μM 0.30103): 145%
Globalfluo assay 1 ([Anidulafungin] log μM 0.60206): 4710709 arbitrary units
Globalfluo assay 2 ([Anidulafungin] log μM 0.60206): 5014887 arbitrary units
Globalfluo assay 3 ([Anidulafungin] log μM 0.60206): 4901610 arbitrary units
Mean globalfluo ([Anidulafungin] log μM 0.60206): 4875735 arbitrary units
Survival rate (%) ([Anidulafungin] log μM 0.60206): 248%
Globalfluo assay 1 [2]: 1165160 arbitrary units
Globalfluo assay 2 [2]: 919370 arbitrary units
Globalfluo assay 3 [2]: 944308 arbitrary units
Mean globalfluo [2]: 1009613 arbitrary units
Survival rate (%) [2]: 22%
Globalfluo assay 1 [3]: 744687 arbitrary units
Globalfluo assay 2 [3]: 1045135 arbitrary units
Globalfluo assay 3 [3]: 678965 arbitrary units
Mean globalfluo [3]: 822929 arbitrary units
Survival rate (%) [3]: 11%
Globalfluo assay 1 [4]: 800327 arbitrary units
Globalfluo assay 2 [4]: 708910 arbitrary units
Globalfluo assay 3 [4]: 845212 arbitrary units
Mean globalfluo [4]: 784816 arbitrary units
Survival rate (%) [4]: 8%
Globalfluo assay 1 ([Anidulafungin] log μM −1): 649447 arbitrary units
Globalfluo assay 2 ([Anidulafungin] log μM −1): 1235676 arbitrary units
Globalfluo assay 3 ([Anidulafungin] log μM −1): 807779 arbitrary units
Mean globalfluo ([Anidulafungin] log μM −1): 897634 arbitrary units
Survival rate (%) ([Anidulafungin] log μM −1): 15%
Globalfluo assay 1 ([Anidulafungin] log μM −2): 664396 arbitrary units
Globalfluo assay 2 ([Anidulafungin] log μM −2): 532817 arbitrary units
Globalfluo assay 3 ([Anidulafungin] log μM −2): 541230 arbitrary units
Mean globalfluo ([Anidulafungin] log μM −2): 579481 arbitrary units
Survival rate (%) ([Anidulafungin] log μM −2): −4%
